pEC50: −log10 of the molar value.
Tests used:
[1] = Reversal of ABCG2-mediated multidrug resistance in human MCF-7/MX cells assessed as potentiation of SN-38-induced cytotoxicity incubated for 72 hrs by MTT assay
[2] = Reversal of ABCC1-mediated multidrug resistance in human H69AR cells assessed as potentiation of daunorubicin-induced cytotoxicity incubated for 72 hrs by MTT assay
[3] = Reversal of ABCB1-mediated multidrug resistance in human A2780/ADR cells assessed as potentiation of daunorubicin-induced cytotoxicity incubated for 72 hrs by MTT assay
[4] = Reversal of ABCG2 (unknown origin)-mediated multidrug resistance in MDCK2 cells co-expressing BCRP (unknown origin) assessed as potentiation of SN-38-induced cytotoxicity incubated for 72 hrs by MTT assay
[5] = Reversal of ABCB1 (unknown origin)-mediated multidrug resistance in MDCK2 cells co-expressing MDR1 (unknown origin) assessed as potentiation of daunorubicin-induced cytotoxicity incubated for 72 hrs by MTT assay
[6] = Reversal of ABCC1 (unknown origin)-mediated multidrug resistance in MDCK2 cells co-expressing MRP1 (unknown origin) assessed as potentiation of daunorubicin-induced cytotoxicity incubated for 72 hrs by MTT assay

**Q.** Which results are given for CC1CCc2c(sc3nc(-c4cccnc4)nc(N4CCN(C(C(N)=O)c5ccccc5)CC4)c23)C1 (stereo unspecified)?
**A.** pEC50 [1]: 5.56; pEC50 [2]: 5.57; pEC50 [3]: 6.13; pEC50 [4]: 5.88; pEC50 [5]: 6.44; pEC50 [6]: 6.14

From BindingDB's records for doi:10.1021/acs.jmedchem.8b01821 (Rheinische Friedrich-Wilhelms-University of Bonn, 2019)
